Laboratory results as given in patent publication US9188584B2, “Capture agents and related compositions, methods and systems” (CALIFORNIA INSTITUTE OF TECHNOLOGY, priority 2008, dated 2015).
Values joined by “and” are separate entries in the source; they are usually repeats but may differ in a detail not shown here. Equal entries are not always repeated.

Legend:
bCAII = biological target: T1, bCAII (Bos taurus, UniProt P00921); assay: KD determination by surface plasmon resonance (SPR), immobilized bCAII; set-up: species or system bovine; settings: binding affinity to bCAII by SPR, 1:1 binding fit
T1 construct: The bCAII (C2522), from bovine erythrocytes, lyophilized powder; purchased Sigma-Aldrich C2522; host or cells: bovine erythrocytes
Source text: KD determination by surface plasmon resonance (SPR).

hCAII = hCAII (Homo sapiens, UniProt P00918); assay: biochemical
Experimental: KD determination by surface plasmon resonance (SPR). […] One flow cell of the biosensor surface (BIACORE CM5) was immobilized with bCAII following standard procedures using 0.25 mg/mL bCAII prepared in 10 mM sodium acetate (pH 5.0) buffer and a 1:1 solution of 0.1 mM NHS and 0.4 mM EDC (Papalia, G. A. et al., 2006). Similarly, a second flow cell was immobilized with hCAII following standard procedures using 0.25 mg/mL hCAII prepared in 10 mM sodium acetate (pH 5.5) buffer (Svedhem, S. et al., 2001). Immobilization levels of ˜4000 RU were achieved using a flow rate of 100 μL/min over 420 s. The remaining two flow cells were left underivatized, to correct for changes in bulk refractive index and to assess nonspecific binding. The running buffer was prepared to contain 10 mM HEPES+150 mM NaCl+0.05% Tween20+3% DMSO, and this buffer was used for all experiments. Prior to the peptide analyte experiment, 8 buffer-alone cycles were completed to establish baseline stabilization. Biligand samples were injected in a concentration series (5 μM to 2 nM) at 100 μL/min flow rate for 120-180 s across the four flow cells. Following background subtraction, the analyte response data was fitted for 1:1 binding affinity using the BiaEvaluation software. […]

b(h)CAII = assay: Dot blot selectivity/sensitivity assay in porcine serum; assay type: binding; settings: 0.1% serum
Experimental: Dot blots are a common method for detecting proteins. […] For a dot blot, the solution containing the protein of interest is simply dotted onto an absorbent membrane material (typically nitrocellulose). The capture agent (typically an antibody) is labeled with biotin molecule, and applied to the same spot. The spot is rinsed, and then horseradish peroxidase (HRP)-labeled streptavidin is added, binding to the biotin that is bound to the protein. Optical methods are typically utilized to detect this binding. For these tests, Biotin-PEG-NovaTag resin (0.48 mmol/g; Novabiochem) was utilized for bulk synthesis of C-terminal biotin-labeled multi-ligands. After resin cleavage, the crude biotinylated multi-ligand was precipitated with ether and then purified to >98% by C18 reversed phase HPLC. For a dot blot assay, the procedure was as follows: b(h)CAII antigens were prepared as 1 mg/mL stocks in PBS (pH 7.4). A dilution series of antigen was applied to a nitrocellulose membrane, typically ranging from 2 μg to 0.5 ng per spot. […] The membrane was then washed with TBS. […] After washing with TBS for 1 h, 1:3000 Streptavidin-HRP (Abcam, Cambridge, Mass.) prepared in 0.5% milk/TBS was added to the membrane and incubated for 1 h. […]

T1 sequence (P00921 whole entry): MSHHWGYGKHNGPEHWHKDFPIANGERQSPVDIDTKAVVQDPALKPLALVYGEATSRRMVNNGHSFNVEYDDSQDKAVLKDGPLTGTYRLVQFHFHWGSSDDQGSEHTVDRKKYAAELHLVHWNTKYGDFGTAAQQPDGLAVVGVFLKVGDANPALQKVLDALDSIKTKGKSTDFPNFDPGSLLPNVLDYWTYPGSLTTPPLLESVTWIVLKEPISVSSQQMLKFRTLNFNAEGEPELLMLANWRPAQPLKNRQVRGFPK

CC[C@@H](C)[C@@H](NC(=O)[C@@H](CC(C)C)NC(=O)[C@@H](CC(N)=O)NC(=O)C(N)CCCCn1cc(C[C@@H](NC(C)=O)C(=O)N[C@H](CCCCN)C(=O)N[C@H](Cc2c[nH]c3ccccc23)C(=O)N[C@H](CC(C)C)C(=O)N[C@H](Cc2c[nH]c3ccccc23)C(=O)NCC(=O)N[C@H](CC(C)C)C(=O)N[C@H](Cc2cn(CCCCC(NC(C)=O)C(=O)N[C@H](CCCCN)C(=O)N[C@H](Cc3ccccc3)C(=O)N[C@H](Cc3c[nH]c4ccccc34)C(=O)N[C@H](CC(C)C)C(=O)N[C@H](CCCCN)C(=O)N[C@H](CC(C)C)C(=O)O)nn2)C(=O)N2CCCCC2)nn1)C(=O)N[C@@H](C(=O)N[C@H](Cc1ccccc1)C(=O)N[C@H](CCCNC(=N)N)C(N)=O)C(C)C (stereo partly drawn) [rfviln-Tz2-kwlwGl-Tz1-kfwlkl]
Kd (bCAII): 60 nM and 64 nM
Kd (hCAII): 45 nM

(D-Pra)-kwlwGl-Tz1-kfwlkl
reduction of dot blot sensitivity relative to triligand (b(h)CAII): > 10 fold
